The text below walks through data of the SangsterLogP compilation.

In turn, `OCCNc1nc2ccccc2[nH]1` displayed a logP of 1.1.
Compound `CC(C)Nc1ccccc1N` came in with a logP of 1.65.
`NC(=O)C(c1ccccc1)c1ccccc1` yielded a logP of 2.11.
Turning to `CC(C)NC(=O)Nc1ccccc1`, the logP amounted to 1.84.
In the case of `CCc1ccccc1NC`, the logP was determined as 2.58.
Take `CC(=O)Nc1ccccc1N`: the logP was determined as 0.13.
The same measure for `CNC(=O)Nc1ccccn1`: 0.8; for `CNc1ccccc1C(=O)OC`: 2.97.
With `CC(C)NC(=O)c1cc2ccccc2oc1=O`, the logP is 2.13.
`CC(C)NC(=O)c1ccc2ccccc2c1`: the logP was 2.68.
Consider `O=C(Nc1ccccc1)Nc1ccccn1`, for which the logP is 3.1.
Consider `CCC(=O)NC(=O)Nc1ccccc1`, for which the logP came out at 2.19.
The figure for `O=C(CCl)Nc1sc2c(c1C(=O)c1ccccc1)CCCC2` is 4.58; for `COc1ccc(C(=O)Nc2nc3ccccc3[nH]2)cc1` it is 2.89.
Regarding `c1ccc(CNc2nc3ccccc3[nH]2)cc1`, the logP was found to be 2.92.
Take `NC(=O)C(C(N)=O)c1ccccc1`: the logP was -0.07.
